Target: T1, purified sGC (bovine lung soluble guanylyl cyclase) (Bos taurus, UniProt P16068)
T1 construct: gene GUCY1B1; native enzyme purified from bovine lung; with Guanylate cyclase soluble subunit alpha-1
T1 sequence (P16068 1-619): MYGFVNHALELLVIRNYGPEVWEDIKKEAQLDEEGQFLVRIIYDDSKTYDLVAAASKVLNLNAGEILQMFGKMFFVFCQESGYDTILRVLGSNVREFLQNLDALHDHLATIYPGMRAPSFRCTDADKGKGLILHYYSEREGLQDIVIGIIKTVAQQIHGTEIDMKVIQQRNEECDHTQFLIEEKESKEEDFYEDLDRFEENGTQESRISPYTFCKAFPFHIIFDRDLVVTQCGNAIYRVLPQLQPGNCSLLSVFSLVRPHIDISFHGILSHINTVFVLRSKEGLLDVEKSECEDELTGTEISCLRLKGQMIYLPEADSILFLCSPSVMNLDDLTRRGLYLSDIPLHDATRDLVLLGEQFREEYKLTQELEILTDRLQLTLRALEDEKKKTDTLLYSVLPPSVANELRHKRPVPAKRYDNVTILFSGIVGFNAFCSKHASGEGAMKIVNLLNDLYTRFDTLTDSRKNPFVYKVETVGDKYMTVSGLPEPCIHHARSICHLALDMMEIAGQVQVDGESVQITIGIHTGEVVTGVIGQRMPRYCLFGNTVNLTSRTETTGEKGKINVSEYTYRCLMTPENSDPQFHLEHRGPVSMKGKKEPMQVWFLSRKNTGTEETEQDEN
T1 sequence (P19687 1-691 partner): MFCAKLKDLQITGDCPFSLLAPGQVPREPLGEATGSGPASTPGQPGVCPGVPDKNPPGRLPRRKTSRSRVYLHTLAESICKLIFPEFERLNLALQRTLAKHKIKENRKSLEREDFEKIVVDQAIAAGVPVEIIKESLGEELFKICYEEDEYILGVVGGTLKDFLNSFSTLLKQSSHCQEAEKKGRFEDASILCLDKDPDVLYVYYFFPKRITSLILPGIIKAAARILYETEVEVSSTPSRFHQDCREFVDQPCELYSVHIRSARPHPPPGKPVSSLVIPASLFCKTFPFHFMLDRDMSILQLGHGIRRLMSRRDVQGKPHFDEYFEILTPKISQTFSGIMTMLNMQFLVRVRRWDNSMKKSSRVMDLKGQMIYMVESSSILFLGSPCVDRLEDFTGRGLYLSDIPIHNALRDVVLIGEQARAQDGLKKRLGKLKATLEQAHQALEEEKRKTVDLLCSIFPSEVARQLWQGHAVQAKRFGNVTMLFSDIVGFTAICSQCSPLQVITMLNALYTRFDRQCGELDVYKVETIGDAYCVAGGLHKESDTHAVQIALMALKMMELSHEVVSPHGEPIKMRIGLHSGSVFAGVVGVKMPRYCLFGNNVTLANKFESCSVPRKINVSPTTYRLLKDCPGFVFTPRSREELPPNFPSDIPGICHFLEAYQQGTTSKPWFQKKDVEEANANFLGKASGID
Experiment: […]cGMP formation from [alpha-32P]GTP by purified sGC
Assay type: biochemical
Settings: 0.5 mM GTP, 3 mM MgCl2, 1 mM cGMP, 0.5% Tween 20 (heme-depleted enzyme), TEA/HCl pH 7.4, 37 °C, no extract; NO-independent heme-site activator

O=C(O)CCCCN(CCc1ccccc1OCc1ccc(CCc2ccccc2)cc1)Cc1ccc(C(=O)O)cc1 [cinaciguat]
cGMP formation (activation): cGMP formation by Tween 20-treated sGC in the presence of the NO-independent heme-site activator cinaciguat

Source: publication PMC10517138, “Varied effects of tobacco smoke and e-cigarette vapor suggest that nicotine does not affect endothelium-dependent relaxation and nitric oxide signaling” (Scientific Reports, 2023)
